Results: patent US8000781B2, “Method of evaluating effect of prolonging QT interval in electrocardiogram” (Eisai R&D Management Co., Ltd., priority 2005, dated 2011)
Like-named read-outs stand apart in the source and are kept apart here.

What was measured:
[1] = tested on: hamster under mixed anesthesia with pentobarbital and xylazine; conditions: n=5; for Influence on the QRS interval / Influence on the RR interval: over the doses tested
anesthetized dogs = conditions: calculated on the basis of the results of the cited report; cited from earlier work

Structure (SMILES) | Degree of prolongation of the QT interval ([1]; 100 μg/kg iv) | Influence on the PQ interval ([1]; iv, doses tested 1, 10 and 100 μg/kg) | Influence on the QRS interval ([1]; iv) | Influence on the RR interval ([1]; iv) | Single dose for intravenous administration providing 10% of prolongation of the duration of monophasic action potential (anesthetized dogs) [mg/kg] | Degree of prolongation of the QT interval ([1]; 1 mg/kg iv)
COc1cc(N)c(Cl)cc1C(=O)NC1CCN(CCCOc2ccc(F)cc2)CC1OC (centres unmarked) [cisapride] | about 20% | did not significantly affect | did not significantly affect | did not significantly affect | 0.1 | –
CC(C)(C)c1ccc(C(O)CCCN2CCC(C(O)(c3ccccc3)c3ccccc3)CC2)cc1 (centres unmarked) [terfenadine] | – | – | did not significantly affect | did not significantly affect | – | about 20%
